# Data as given in patent US10105367B2, “Therapeutic thiophene-, furan-, and pyridine-fused azolopyrimidin-5-(6h)-ones” (Dart Neuroscience (Cayman) Ltd., priority 2012, dated 2018).
# Molecular target: human PDE1B (Homo sapiens (Human), UniProt Q01064)
# Experiment: PDE1B inhibitory assay (IMAP TR-FRET)
# Conditions: PDE1B pIC50, negative log of half-maximal molar inhibitory concentration; 200 nM FAM-cAMP, Calmodulin, CaCl2
# Protocol: PDE1B inhibition was determined by an IMAP TR-FRET assay.
# After a brief centrifugation, the plates were incubated for 30 minutes at room temperature. The assay was terminated by adding 5 μL IMAP binding reagent/Tb complex (Molecular Devices, Sunnyvale, Calif.) to each well.
# Plates were incubated 1 hour at room temperature and read on a Viewlux multimode plate reader (Perkin Elmer). The instrument was set to excite using the DUG11 filter and measure using 490/10 nm and 520/10 nm filters. Ratios of acceptor and donor were then calculated.
# For IC50 calculations, the values of % efficacy versus a series of compound concentrations were then plotted using non-linear regression analysis of sigmoidal dose-response curves generated with the equation Y=B+(T−B)/1+10((Log EC50−X)×Hill Slope), where Y=percent activity, B=minimum percent efficacy, T=maximum percent efficacy, X=logarithm of compound and Hill Slope=slope factor or Hill coefficient. The IC50 value was determined by the concentration causing a half-maximal percent efficacy.
row,Compound,IC50 [nM]
1,CC(C)CCc1cc2c(s1)n(Cc1ccccc1Cl)c(=O)n1ncnc21 [Example 19],1000 to 10000
2,"COc1ccc(Cn2c(=O)n3ncnc3c3c(CN4C[C@@H](C)O[C@@H](C)C4)csc32)cc1 [Example 78, 9-(((2S,6R)-2,6-Dimethylmorpholino)methyl)-6-(4-methoxybenzyl)thieno[3,2-e][1,2,4]triazolo[1,5-c]pyrimidin-5(6H)-one]",100 to 1000
3,COc1ccc(Cn2c(=O)n3ncnc3c3cc(N4CCC(N(C)C)C4)cnc32)cc1 (stereo not shown) [Example 198],100 to 1000
4,CCOc1ccc(Cn2c(=O)n3ncnc3c3cc(CN4C[C@@H](C)O[C@@H](C)C4)cnc32)cc1 [Example 301],100 to 1000
5,COc1ccc(Cn2c(=O)n3ncnc3c3cc(CN(C)C4CCOCC4)cnc32)cc1 [Example 237],1000 to 10000
6,"COc1ccc(Cn2c(=O)n3ncnc3c3cc(N4CCN(C5CC5)CC4)cnc32)cc1 [Example 193, 9-(4-Cyclopropylpiperazin-1-yl)-6-(4-methoxybenzyl)pyrido[3,2-e][1,2,4]triazolo[1,5-c]pyrimidin-5(6H)-one]",100 to 1000
7,COc1ccc(Cn2c(=O)n3ncnc3c3ccc(CNCC4(C)COC4)nc32)cc1 [Example 258],1000 to 10000
8,COc1ccc(Cn2c(=O)n3ncnc3c3cc(CN4CCN(C)CC4)sc32)cc1 [Example 32],100 to 1000
9,Cc1ccccc1Cn1c(=O)n2ncnc2c2cc(CN3C[C@@H](C)O[C@@H](C)C3)cnc21 [Example 283],1000 to 10000
10,Cc1cc2c(s1)n(Cc1ccccc1Cl)c(=O)n1ncnc21 [Example 13],1000 to 10000
11,COc1ccc(Cn2c(=O)n3ncnc3c3ncc(CN4C[C@@H](C)O[C@@H](C)C4)cc32)cc1 [Example 244],1000 to 10000
12,Cc1ccc(Cn2c(=O)n3ncnc3c3c4c(sc32)COCC4)cc1 [Example 88],100 to 1000
13,O=c1n(Cc2ccc(Cl)cc2)c2ncc(CN3CCCCC3)cc2c2ncnn12 [Example 209],1000 to 10000
14,"COc1ccc(Cn2c(=O)n3ncnc3c3c(C)c(Br)sc32)cc1 [Example 76, 8-Bromo-6-(4-methoxybenzyl)-9-methylthieno[3,2-e][1,2,4]triazolo[1,5-c]pyrimidin-5(6H)-one]",100 to 1000
15,CCOc1ccc(Cn2c(=O)n3ncnc3c3c4c(sc32)COCC4)cc1 [Example 97],1000 to 10000
16,O=c1n(Cc2ccc(F)cc2)c2sc3c(c2c2ncnn12)CCOC3 [Example 92],1000 to 10000
17,Cc1cc2c(s1)n(Cc1cccc(Cl)c1)c(=O)n1ncnc21 [Example 16],1000 to 10000

row,Compound,IC50 [nM]
1,COc1ccc(Cn2c(=O)n3ncnc3c3cc(CN4CC5CCC(C4)O5)cnc32)cc1 [Example 227],100 to 1000
2,COc1ccc(Cn2c(=O)n3ncnc3c3cc(CN4CCCOCC4)cnc32)cc1 [Example 233],100 to 1000
3,O=c1n(Cc2ccccc2Cl)c2sc3c(c2c2ncnn12)CCCC3 [Example 81],1000 to 10000
4,C[C@@H]1CN(Cc2cnc3c(c2)c2ncnn2c(=O)n3Cc2ccc(Cl)cc2)C[C@H](C)O1 [Example 210],100 to 1000
5,COc1ccc(Cn2c(=O)n3ncnc3c3cc(-c4ccc(OC)nc4)cnc32)cc1 [Example 190],100 to 1000
6,COc1ccc(Cn2c(=O)n3ncnc3c3cc(CN4CCSCC4)cnc32)cc1 [Example 207],100 to 1000
7,C[C@@H]1CN(Cc2cnc3c(c2)c2ncnn2c(=O)n3Cc2cc(F)cc(Cl)c2)C[C@H](C)O1 [Example 299],1000 to 10000
8,COc1ccc(Cn2c(=O)n3ncnc3c3c4c(sc32)N(C(=O)c2ccccc2)CCC4)cc1OC [Example 176],1000 to 10000
9,COc1ccc(Cn2c(=O)n3ncnc3c3ncc(CN4CCN(C)CC4)cc32)cc1 [Example 240],1000 to 10000
10,C=C(OCC)c1cnc2c(c1)c1ncnn1c(=O)n2Cc1ccc(OC)cc1 [Example 216],100 to 1000
11,COc1ccc(Cn2c(=O)n3ncnc3c3cc(CN4CC(F)(F)OC(F)(F)C4)cnc32)cc1 [Example 226],100 to 1000
12,C[C@@H]1CN(Cc2cnc3c(c2)c2ncnn2c(=O)n3Cc2ccc(Cl)c(Cl)c2)C[C@H](C)O1 [Example 295],100 to 1000
13,COc1ccc(Cn2c(=O)n3ncnc3c3c4c(sc32)CN(C(=O)C2CCNC2)CC4)cc1 (stereo not shown) [Example 181],100 to 1000
14,COc1ccc(Cn2c(=O)n3ncnc3c3cc(CN(C)C)cnc32)cc1 [Example 219],1000 to 10000
15,COCCN(C)Cc1cnc2c(c1)c1ncnn1c(=O)n2Cc1ccc(OC)cc1 [Example 245],100 to 1000
16,O=c1n(Cc2cccc(Cl)c2)c2sc(Cc3ccccc3)cc2c2ncnn12 [Example 9],100 to 1000
17,"COc1ccc(Cn2c(=O)n3ncnc3c3ccc(CN4CCOCC4)nc32)cc1 [Example 256, 6-(4-Methoxybenzyl)-8-(morpholinomethyl)pyrido[3,2-e][1,2,4]triazolo[1,5-c]pyrimidin-5(6H)-one]",1000 to 10000

# Same assay, conditions: negative log of half-maximal molar inhibitory concentration; 200 nM FAM-cAMP, Calmodulin, CaCl2
row,Compound,PDE1B pIC50
1,"COc1ccc(Cn2c(=O)n3ncnc3c3cc(C(N4CCOCC4)C(F)(F)F)cnc32)cc1 (stereo not shown) [Example 272, 6-(4-Methoxybenzyl)-9-(2,2,2-trifluoro-1-morpholinoethyl)pyrido[3,2-e][1,2,4]triazolo[1,5-c]pyrimidin-5(6H)-one]",>7
2,COc1ccc(Cn2c(=O)n3ncnc3c3c4c(sc32)CN(Cc2nccn2C)CC4)c(F)c1 [Example 138],>7
3,COc1ccc(Cn2c(=O)n3ncnc3c3c(C)c(CNC4CC4)sc32)cc1 [Example 57],>7
4,COc1ccc(Cn2c(=O)n3ncnc3c3c4c(sc32)CN(Cc2nnc(C)s2)CC4)cc1 [Example 108],>7
5,COc1ccc(Cn2c(=O)n3ncnc3c3c4c(sc32)CN(Cc2ccncc2)CC4)cc1 [Example 121],>7
6,COc1ccc(Cn2c(=O)n3ncnc3c3cc(CN4CCN(S(=O)(=O)N(C)C)CC4)cnc32)cc1 [Example 253],>7
7,COc1ccc(Cn2c(=O)n3ncnc3c3c(C)c(CN4CCOCC4C)sc32)cc1 (stereo not shown) [Example 71],>7
8,CCC1CN(Cc2sc3c(c2C)c2ncnn2c(=O)n3Cc2ccc(OC)cc2)CCO1 (stereo not shown) [Example 68],>7
9,"COc1ccc(Cn2c(=O)n3ncnc3c3c4c(sc32)CN(C(=O)OC(C)(C)C)CC4)cc1 [Example 80, tert-Butyl 6-(4-methoxybenzyl)-5-oxo-5,6,10,11-tetrahydropyrido[4′,3′:4,5]thieno[3,2-e][1,2,4]triazolo[1,5-c]pyrimidine-9(8H)-carboxylate]",>7
10,CCN1CCN(Cc2sc3c(c2C)c2ncnn2c(=O)n3Cc2ccc(OC)cc2)CC1=O [Example 66],>7
11,COc1ccc(Cn2c(=O)n3ncnc3c3c4c(sc32)CN(CC2(C)COC2)CC4)cc1 [Example 111],>7
12,COc1ccc(Cn2c(=O)n3ncnc3c3c(C)c(CN4CC5CCC(C4)O5)sc32)cc1 [Example 67],>7
13,COc1ccc(Cn2c(=O)n3ncnc3c3c4c(sc32)CN(CC2CCCOC2)CC4)c(F)c1 (stereo not shown) [Example 142],>7
14,COc1ccc(Cn2c(=O)n3ncnc3c3c(C)c(CN4CCOCC4)sc32)cc1 [Example 44],>7
15,COc1ccc(Cn2c(=O)n3ncnc3c3c(C)c(CN4CCCOCC4)sc32)cc1 [Example 61],>7
16,COc1ccc(Cn2c(=O)n3ncnc3c3c4c(sc32)CN(Cc2ccccc2F)CC4)cc1 [Example 128],>7
17,COc1ccc(Cn2c(=O)n3ncnc3c3cc(-c4cccnc4OC)cnc32)cc1 [Example 191],>7

row,Compound,PDE1B pIC50
1,COc1ccc(Cn2c(=O)n3ncnc3c3c4c(sc32)CN(CC2CCOCC2)CCC4)cc1 [Example 147],>7
2,COc1ccc(Cn2c(=O)n3ncnc3c3c(C)c(CN4CCN(C(C)C)CC4)sc32)cc1 [Example 64],>7
3,"COc1ccc(Cn2c(=O)n3ncnc3c3cc(-c4ccc(OC)c(OC)c4)cnc32)cc1 [Example 189, 9-(3,4-Dimethoxyphenyl)-6-(4-methoxybenzyl)pyrido[3,2-e][1,2,4]triazolo[1,5-c]pyrimidin-5(6H)-one]",>7
4,"O=C(c1cnccn1)N1CCc2c(sc3c2c2ncnn2c(=O)n3Cc2ccc(Cl)cc2)C1 [Example 157, 6-(4-Chlorobenzyl)-9-(pyrazine-2-carbonyl)-8,9,10,11-tetrahydropyrido[4′,3′:4,5]thieno[3,2-e][1,2,4]triazolo[1,5-c]pyrimidin-5(6H)-one]",>7
5,"COc1ccc(Cn2c(=O)n3ncnc3c3cc(-c4cc(C(F)(F)F)nn4C)sc32)cc1 [Example 41, 6-(4-Methoxybenzyl)-8-(1-methyl-3-(trifluoromethyl)-1H-pyrazol-5-yl)thieno[3,2-e][1,2,4]triazolo[1,5-c]pyrimidin-5(6H)-one]",>7
6,COc1ccc(Cn2c(=O)n3ncnc3c3cc(CN4CC5CC4CO5)sc32)cc1 (stereo not shown) [Example 37],>7
7,COc1ccc(Cn2c(=O)n3ncnc3c3c4c(sc32)CN(CC2CCCOC2)CC4)cc1 (stereo not shown) [Example 134],>7
8,COc1ccc(Cn2c(=O)n3ncnc3c3cc(CN4CCN(S(C)(=O)=O)CC4)sc32)cc1 [Example 35],>7
9,COc1ccc(Cn2c(=O)n3ncnc3c3cc(CN4CC5(CCOCC5)C4)sc32)cc1 [Example 38],>7
10,C[C@@H]1CN(Cc2cnc3c(c2)c2ncnn2c(=O)n3Cc2ccc(N3CCCC3=O)cc2)C[C@H](C)O1 [Example 300],<5
11,COc1ccc(Cn2c(=O)n3ncnc3c3c(C)c(CN4CCN(C)C(C)(C)C4)sc32)cc1 [Example 74],>7
12,COc1ccc(Cn2c(=O)n3ncnc3c3c4c(sc32)N(CC2CCOCC2)CCC4)cc1 [Example 148],>7
13,COc1ccc(Cn2c(=O)n3ncnc3c3c4c(sc32)CN(C(=O)C2CCOC2)CC4(F)F)cc1 (stereo not shown) [Example 166],>7
14,O=c1n(Cc2ccc(-c3ccccc3)cc2)c2sccc2c2ncnn12 [Example 4],<5
15,COc1ccc(Cn2c(=O)n3ncnc3c3c4c(sc32)CN(Cc2ncccn2)CC4)cc1 [Example 116],>7
16,COc1ccc(Cn2c(=O)n3ncnc3c3c4c(sc32)CN(Cc2ccccn2)CC4)cc1 [Example 120],>7
